Counter-ions that a name gives are not always drawn. Like-named read-outs stand apart in the source and are kept apart here. Marks after values point to notes of the source that are not given here.
How the values were obtained:
[1] = In vitro biotransformation rate, rainbow trout liver S9 (OECD TG 319); assay type: in vitro ADME
Experimental: In brief, rainbow trout liver S9 homogenate was preincubated in buffer and cofactors, followed by 120 min of incubation with bisphenol. From each duplicate, 50 μL of subsamples was taken at timepoints 0, 2, 5, 15, 30, 60, 90, and 120 min and mixed with 200 μL of ice-cold methanol. The protocol of the procedure is described further in Section 2.
1042. Biotransformation rate estimation methodology
106Trinova Biochem; Lot: 180216) was pre-incubated at 11°C in K 2HPO4/KH2PO4 buffer
107(pH=7.8; 1 mL final volume) containing alamethicin from Trichoderma viride (25 μg/mL), and
108cofactors NADPH (2 mM), UDPGA (2 mM), GSH (5 mM), and PAPS (0.1 mM). After 10 min
109of preincubation, biotransformation was started by adding 5 µL of bisphenol test compound
110dissolved in methanol (1 µM final concentration). […]

[2] = cited from earlier work
zebrafish [3] = assay: PBTK parameter fitting (Nelder–Mead algorithm) to in vivo zebrafish data; set-up: species or system zebrafish (Danio rerio); conditions: fitted on egg TBBPA concentrations, 100 nmol/g feed (Nyholm et al.)
From the text: Ovaries and eggs were assumed to receive the same blood flow. The equation for the egg compartment was described as follows using the diffusion-limited equation previously described by Thompson and Beard[51] [drawing 4] 4 where dAegg/dt represents the rate of change of bisphenol over time in the egg compartment, Agon and Aegg represent the amount of compound in the gonads and egg, respectively, Vgon and Vegg are the volumes of the gonads and eggs, respectively, and Pgon and Pegg are the partition coefficients of the gonads to blood and egg to gonads.
Parameter fitting was done in R using the modFit function in the FME package with the Nelder–Mead algorithm.[53]
279For fitting, the model was run using the exposure scenarios of each fitting data set.
280parameters were fixed as presented in Tables S10-S14 with exception of the parameter for
281which fitting was performed. The outcome evaluated by fitting algorithm was the concentration
282over time in the same tissue as the experimental data. Outcomes used for fitting to measured
283experimental data were: concentration in brain for brain-blood partition coefficient,
284concentration in liver for liver-blood partition coefficient, concentration in eggs for egg-gonad
285partition coefficient and whole-body metabolite concentration for Ke bile and KBG of metabolites.
286For the liver, brain and egg partitioning, the range was set between 0.01 and 500 and the Nelder-
287Mead algorithm was run with initial estimates at 1, 5, 10, 50 and 500 in order to assure a global
288minimum was found. The fitted values returning the lowest squared sum of residuals were used
The GI lumen to GI tract diffusion rate (K u)

zebrafish [4] = test system: zebrafish; set-up: method as in Nyholm et al. 46; conditions: female, observed, ref Nyholm et al. 46, cited from earlier work
[5] = cited from earlier work; remark: listed apart in the source
zebrafish [6] = conditions: cited from earlier work
[7] = cited from earlier work; remark: listed apart in the source
ER = conditions: known from literature, no reference given; cited from earlier work
zebrafish [8] = conditions: female, observed, ref Chen et al. 43, cited from earlier work
UGT1A1 = test system: UGT1A1; set-up: method as in Wang et al. 64; conditions: single isolated enzyme; ref Wang et al. 64; cited from earlier work
[9] = hepatocytes; cited from earlier work
zebrafish [10] = conditions: cited from earlier work; remark: listed apart in the source
Estrogen receptor (ER) [11] = molecular target: Estrogen receptor (ER); set-up: method as in Tox21; conditions: ATG Era Trans up assay; ref Tox21; cited from earlier work
Estrogen receptor (ER) [12] = molecular target: Estrogen receptor (ER); set-up: method as in Kitamura et al. 2005; conditions: ERE-luciferase reporter assay, MCF-7 cells; ref Kitamura et al. 2005; cited from earlier work
Estrogen receptor (ER) [13] = molecular target: Estrogen receptor (ER); set-up: method as in Tox21; conditions: ATG ERE CIS up assay; ref Tox21; cited from earlier work
[14] = from measured S9 clearance, transformed as suggested by Nichols et al.
[15] = in vitro incubation with rainbow trout liver S9, assuming 163 mg S9 protein/g liver
[16] = measured human values, ref CompTox Dashboard
[17] = cells marked g, ref Staples et al. 1998
[18] = metabolite, Female, whole body, Observed, ref Lindholst et al. 2003
[19] = 20 μg/L, female, liver, observed, ref Shi et al. 47
[20] = 20 μg/L, female, ovaries, observed, ref Shi et al. 47
[21] = 20 μg/L, female, whole body, observed, ref Shi et al. 47
[22] = 20 μg/L, male, liver, observed, ref Shi et al. 47
[23] = 20 μg/L, male, testes, observed, ref Shi et al. 47
[24] = 20 μg/L, male, whole body, observed, ref Shi et al. 47
[25] = measured values, ref Grumetto et al 2019
[26] = metabolite, Female, whole body, Observed, ref Shi et al. 2016
[27] = metabolite, Male, whole body, Observed, ref Shi et al. 2016

Compound: CC(C)(c1cc(Br)c(O)c(Br)c1)c1cc(Br)c(O)c(Br)c1 [TBBPA, tetrabromobisphenol A]
- parent compound metabolized when levels stopped decreasing ([1]; after 15 min of incubation, both repetitions): ~70%
- CL ([1]; both series combined): 4.18 mL/(h x mg)
- CLin vivo,int (in vivo intrinsic clearance) [1, 14]: 245 L/d/Kg fish
- CL (clearance rate) [1, 15]: 1.63 × 10^4 mL/d/g liver
- CL ([1]; series 1 (s1)): 3.90 mL/(h x mg)
- k (first-order disappearance rate constant) ([1]; series 1 (s1)): 3.95 h⁻¹
- CL ([1]; series 2 (s2)): 4.45 mL/(h x mg)
- k (first-order disappearance rate constant) ([1]; series 2 (s2)): 4.38 h⁻¹
- Funbound (plasma fraction unbound) [2, 16]: 0.001
- Ku (diffusion coefficient from GI lumen into GI tract) (zebrafish [3]): 8.40
- Pegg (egg-gonad partition coefficient) (zebrafish [3]; used for all bisphenols): 1.58
- AUC (zebrafish [4]; 10 nmol/g feed, egg): 0.017 µg/g/day
- Cmax (zebrafish [4]; 10 nmol/g feed, egg): 0.001 µg/g
- AUC (zebrafish [4]; 10 nmol/g feed, whole body): 0.291 µg/g/day
- Cmax (zebrafish [4]; 10 nmol/g feed, whole body): 0.015 µg/g
- AUC (zebrafish [4]; 100 nmol/g feed, egg): 0.118 µg/g/day
- Cmax (zebrafish [4]; 100 nmol/g feed, egg): 0.004 µg/g
- log Kow ([5]; measured value, ref Kuramochi et al. 68): 6.53 ^i

Compound: CC(C)(c1ccc(O)cc1)c1ccc(OS(=O)(=O)O)cc1 [BPA sulfate]
- concentrations relative to those of the glucuronide (zebrafish [6]; zebrafish, in vivo): 1000 times lower

Compound: BPA glucuronic acid [BPA-GA]
- Ratio blood-plasma [7, 17]: 1.00
- AUC (zebrafish [6]; [18]): 109 µg/g/day
- Cmax (zebrafish [6]; [18]): 16.2 µg/g
- t1/2 (zebrafish [6]; [18]): 196 h

Compound: CC(C)(C)c1cc(Cc2cc(C(C)(C)C)c(O)c(C(C)(C)C)c2)cc(C(C)(C)C)c1O [Bimox M]
- CL (in vitro rainbow trout clearance rate) [1]: 0 ml/d/g liver
- metabolic degradation [1]: no metabolic degradation
- CL (clearance rate) ([1]; 163 mg): 0 mL/d/g liver
- CLin vivo,int (in vivo intrinsic clearance) ([1]; s9): 0 L/d/Kg fish
- ER activity (ER): inactive on the ER

Compound: CC(C)(c1ccc(O)cc1)c1ccc(O)cc1 [BPA, Bisphenol A]
- CLin vivo,int (in vivo intrinsic clearance) [1, 14]: 36.7 L/d/Kg fish
- Funbound (plasma fraction unbound) ([2]; plasma): 0.035
- BCF (zebrafish [8]; 1.94 μg/L, liver): 201
- BCF (zebrafish [8]; 1.94 μg/L, ovaries): 10.3
- BCF (zebrafish [8]; 5.72 μg/L, liver): 199
- BCF (zebrafish [8]; 5.72 μg/L, ovaries): 21.0
- BCF (zebrafish [8]; 5.72 μg/L, whole body): 19.2
- BCF (zebrafish [6]; 97.5 μg/L, gender not specified, whole body, observed, ref Lindholst et al. 39): 6.46
- t1/2 (zebrafish [6]; zebrafish, in vivo): 107 h
- UGT1A1 activity (UGT1A1): 5.19 pmol/min/mg protein
- log Kow ([5]; ref Staples et al. 67): 3.42 ^f
- CL (human clearance rate) [9]: 1.46*105 ml/d/g liver

Compound: Cc1cc(C(C)(C)c2ccc(O)c(C)c2)ccc1O [BPC, bisphenol C]
- CL ([1]; both series combined): 1.03 mL/(h x mg)
- CLin vivo,int (in vivo intrinsic clearance) [1, 14]: 60.6 L/d/Kg fish
- CL (clearance rate) [1, 15]: 4.04 × 10^3 mL/d/g liver
- CL ([1]; series 1 (s1)): 1.01 mL/(h x mg)
- k (first-order disappearance rate constant) ([1]; series 1 (s1)): 1.03 h⁻¹
- CL ([1]; series 2 (s2)): 1.05 mL/(h x mg)
- k (first-order disappearance rate constant) ([1]; series 2 (s2)): 1.05 h⁻¹

Compound: Oc1ccc(C(c2ccc(O)cc2)(C(F)(F)F)C(F)(F)F)cc1 [BPAF, bisphenol AF]
- CL ([1]; both series combined): 0.78 mL/(h x mg)
- CLin vivo,int (in vivo intrinsic clearance) [1, 14]: 45.5 L/d/Kg fish
- CL (clearance rate) [1, 15]: 3.04 × 10^3 mL/d/g liver
- CL ([1]; series 1 (s1)): 0.75 mL/(h x mg)
- k (first-order disappearance rate constant) ([1]; series 1 (s1)): 0.73 h⁻¹
- CL ([1]; series 2 (s2)): 0.80 mL/(h x mg)
- k (first-order disappearance rate constant) ([1]; series 2 (s2)): 0.78 h⁻¹
- Funbound (plasma fraction unbound) [2, 16]: 0.010
- AUC (zebrafish [10]; [19]): 1.38 µg/g/day
- BCF (zebrafish [10]; [19]): 11.9
- Cmax (zebrafish [10]; [19]): 0.24 µg/g
- t1/2 (zebrafish [10]; [19]): 204 h
- AUC (zebrafish [10]; [20]): 1.50 µg/g/day
- BCF (zebrafish [10]; [20]): 10.9
- Cmax (zebrafish [10]; [20]): 0.22 µg/g
- t1/2 (zebrafish [10]; [20]): 190 h
- AUC (zebrafish [10]; [21]): 0.8 µg/g/day
- BCF (zebrafish [10]; [21]): 7.04
- Cmax (zebrafish [10]; [21]): 0.14 µg/g
- t1/2 (zebrafish [10]; [21]): 120 h
- AUC (zebrafish [10]; [22]): 4.93 µg/g/day
- BCF (zebrafish [10]; [22]): 40.5
- Cmax (zebrafish [10]; [22]): 0.81 µg/g
- t1/2 (zebrafish [10]; [22]): 610 h
- AUC (zebrafish [10]; [23]): 3.23 µg/g/day
- BCF (zebrafish [10]; [23]): 27.5
- Cmax (zebrafish [10]; [23]): 0.55 µg/g
- t1/2 (zebrafish [10]; [23]): 20.4 h
- AUC (zebrafish [10]; [24]): 1.25 µg/g/day
- BCF (zebrafish [10]; [24]): 9.80
- Cmax (zebrafish [10]; [24]): 0.20 µg/g
- t1/2 (zebrafish [10]; [24]): 85.9 h

Compound: O=S(=O)(c1ccc(O)cc1)c1ccc(O)cc1 [BPS, bisphenol S]
- EC50 (Estrogen receptor (ER) [11]): 800 nM
- k (first-order disappearance rate constant) ([1]; series 1 (s1)): 0.41 h⁻¹
- k (first-order disappearance rate constant) ([1]; series 2 (s2)): 0.48 h⁻¹
- EC50 (Estrogen receptor (ER) [12]): 1100 nM
- EC50 (Estrogen receptor (ER) [13]): 1420 nM

Compound: Oc1ccc(Cc2ccc(O)cc2)cc1 [BPF, bisphenol F]
- EC50 (Estrogen receptor (ER) [11]): 950 nM
- CL ([1]; both series combined): 0.31 mL/(h x mg)
- CLin vivo,int (in vivo intrinsic clearance) [1, 14]: 18.0 L/d/Kg fish
- CL (clearance rate) [1, 15]: 1.20 × 10^3 mL/d/g liver
- CL ([1]; series 1 (s1)): 0.31 mL/(h x mg)
- k (first-order disappearance rate constant) ([1]; series 1 (s1)): 0.31 h⁻¹
- CL ([1]; series 2 (s2)): 0.30 mL/(h x mg)
- k (first-order disappearance rate constant) ([1]; series 2 (s2)): 0.31 h⁻¹
- EC50 (Estrogen receptor (ER) [12]): 1000 nM
- Ratio blood-plasma [7, 25]: 1.41
- EC50 (Estrogen receptor (ER) [13]): 780 nM
- log Kow ([5]; measured value, ref CompTox Dashboard): 2.91 ^h

Compound: O=C(c1ccc(O)cc1O)c1ccc(O)cc1O [BP-2, benzophenone 2]
- EC50 (Estrogen receptor (ER) [11]): 620 nM
- CL (clearance rate) ([1]; 163 mg): 5.79 × 10^4 mL/d/g liver
- CLin vivo,int (in vivo intrinsic clearance) ([1]; s9): 869 L/d/Kg fish
- Funbound (plasma fraction unbound) ([2]; human, plasma): 0.035
- EC50 (Estrogen receptor (ER) [13]): 620 nM
- CL (human clearance rate) [9]: 1.41*105 ml/d/g liver

Compound: CCC(C)(c1ccc(O)cc1)c1ccc(O)cc1 [BPB, bisphenol B]
- EC50 (Estrogen receptor (ER) [11]): 130 nM
- CL ([1]; both series combined): 0.96 mL/(h x mg)
- CLin vivo,int (in vivo intrinsic clearance) [1, 14]: 56.4 L/d/Kg fish
- CL (clearance rate) [1, 15]: 3.76 × 10^3 mL/d/g liver
- CL ([1]; series 1 (s1)): 0.92 mL/(h x mg)
- k (first-order disappearance rate constant) ([1]; series 1 (s1)): 0.95 h⁻¹
- CL ([1]; series 2 (s2)): 1.00 mL/(h x mg)
- k (first-order disappearance rate constant) ([1]; series 2 (s2)): 0.99 h⁻¹
- EC50 (Estrogen receptor (ER) [12]): 70 nM
- Funbound (plasma fraction unbound) [2, 16]: 0.018
- Ratio blood-plasma [7, 25]: 1.04
- EC50 (Estrogen receptor (ER) [13]): 170 nM

Compound: O=C(O)[C@H]1O[C@@H](Oc2ccc(C(c3ccc(O)cc3)(C(F)(F)F)C(F)(F)F)cc2)[C@H](O)[C@@H](O)[C@@H]1O [BPAF-GA, BPAF glucuronic acid]
- Ratio blood-plasma [7, 17]: 1.00
- AUC (zebrafish [10]; [26]): 6.54 µg/g/day
- Cmax (zebrafish [10]; [26]): 1.09 µg/g
- AUC (zebrafish [10]; [27]): 3.54 µg/g/day
- Cmax (zebrafish [10]; [27]): 0.60 µg/g

Compound: CC(c1ccccc1)(c1ccc(O)cc1)c1ccc(O)cc1 [BPAP, bisphenol AP]
- EC50 (Estrogen receptor (ER) [11]): 120 nM
- CL ([1]; both series combined): 1.80 mL/(h x mg)
- CLin vivo,int (in vivo intrinsic clearance) [1, 14]: 106 L/d/Kg fish
- CL (clearance rate) [1, 15]: 7.06 × 10^3 mL/d/g liver
- CL ([1]; series 1 (s1)): 1.79 mL/(h x mg)
- k (first-order disappearance rate constant) ([1]; series 1 (s1)): 1.73 h⁻¹
- CL ([1]; series 2 (s2)): 1.82 mL/(h x mg)
- k (first-order disappearance rate constant) ([1]; series 2 (s2)): 1.74 h⁻¹
- EC50 (Estrogen receptor (ER) [13]): 290 nM

Source: PMC9301920, “Physiologically Based Toxicokinetic Modeling of Bisphenols in Zebrafish (Danio rerio) Accounting for Variations in Metabolic Rates, Brain Distribution, and Liver Accumulation” (Environmental Science & Technology, 2022)
